In patent US20230159449A1, “LIPID FORMULATIONS CONTAINING NUCLEIC ACIDS AND METHODS OF TREATMENT FOR CYSTIC FIBROSIS” (Arcturus Therapeutics, Inc., priority 2021, published 2023):

Tested on: FRT cells
Assay: Transepithelial conductance (Gt) in Air-Liquid Interface culture of transfected FRT cells
Assay type: cell-based, rat
Conditions: FRT cells transfected with 2099.1 or 1835.1; sequential Forskolin, VX770, Inh-172
Protocol: Further studies were conducted to assess the activity of hCFTR proteins expressed by selected mRNA constructs and whether these can properly open and close to allow proper ion transport. In these studies, an Air-Liquid Interface (ALI) cell culture model of FRT cells was used to transfect an unformulated subset of codon-optimized hCFTR mRNAs at different doses ranging from 0.5 μg-2 μg of mRNA (the 2 μg dose is not shown) into the FRT cells. ALI is a method of cell culture by which polarized cells are generated with their basal surfaces in contact with media, and the top of the cellular layer is exposed to the air. This model helps to mimic the cellular structure of in vivo airways. At 24 hours post-transfection, transepithelial conductance (Gt) of the cells over time was measured as an indicator of CFTR activity. Initially, Gt was measured with the transfected or control cells unperturbed. Then, a sequential process of CFTR activation (channel opening), enhancement (gating promotion) and closing of the CFTR channels was performed. The hCFTR constructs used in this study were 1835.1 (SEQ ID NO: 53), 2093.1 (SEQ ID NO: 66), 2095.1 (SEQ ID NO: 68), 2096.1 (SEQ ID NO: 69), and 2099.1 (SEQ ID NO: 72). In addition, controls were performed using a reference sequence of construct 764.1 (SEQ ID NO: 47) and untransfected cells. […]

| Compound | change in Gt on introduction of the agent |
| --- | --- |
| O=C(O)c1ccc(C=C2SC(=S)N(c3cccc(C(F)(F)F)c3)C2=O)cc1 [Inh-172, reference compound] | decline in Gt |
| CC(C)(C)c1cc(C(C)(C)C)c(NC(=O)c2c[nH]c3ccccc3c2=O)cc1O [VX770, reference compound] | second increase in Gt |
